Measured values reported in patent US4980377A, “1-(aminophenyl)-2-aminopropanone derivatives” (Laboratoire L. Lafon, priority 1984, dated 1990).
“Also recorded” adds a separate entry of the source. Counter-ions that a name gives are not always drawn.

Tests used:
[1] = test system: mice; assay: Motility reduced by hypoxic aggression; format: in vivo, mouse; details: i.p.
Description: Half an hour after they have received CRL 41 153, the mice (10 per dose, 20 control animals) are subjected to acute hypobaric anoxia [pressure reduction of 600 mm Hg (i.e. about 8×10^4 Pa) in 90 seconds; release of vacuum in 45 seconds] and are then placed in an actimeter, where their motility is recorded for 10 minutes.

[2] = test system: mice; assay: Four plate test, traction and electric shock; format: in vivo, mouse; details: i.p.
Description: The test is performed on groups of 10 mice 30 minutes after the administration of CRL 41 153.

[3] = test system: rats; assay: Overall behavior and reactivities in rats; format: in vivo, rat; details: i.p.
Description: (§1) In the neuropsychopharmacological study which follows, a solution of CRL 41 153 in distilled water (pH 1.5) was administered intraperitoneally in a volume of 20 ml/kg to male mice and 5 ml/kg to male rats.
(§2) Groups of three animals are observed before and then 0.25 hour, 0.50 hour, 1 hour, 2 hours, 3 hours and 24 hours after the administration of CRL 41 153.

[4] = test system: gravid White New Zealand female rabbits; assay: Teratogenicity in gravid White New Zealand rabbits; format: in vivo, rabbit; details: day 5 to day 18 of gestation; for Affected foetuses, %: normal limit 1.5%
Procedure, shortened: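 Fetuses harvested by cesarean on gestation day 29 were scored for number and for any malformation (limb blockade, anury, tail or skull defects, exencephaly).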

[5] = test system: mice; assay: Interaction with reserpine; format: in vivo, mouse; details: i.p.
Description: Four hours after the intraperitoneal injection of 2.5 mg/kg of reserpine, groups of 6 mice receive CRL 41 153.

[6] = test system: rats; assay: Interaction with amphetamine; format: in vivo, rat; details: i.p.
Description: Amphetamine (2 mg/kg) is injected intraperitoneally into groups of 6 rats 30 minutes after the administration of CRL 41 153. […] 4 mg/kg and 16 mg/kg, CRL 41 153 potentiates the intensity and duration of the stereotypies induced by amphetamine.

[7] = test system: mice; assay: Interaction with barbital; format: in vivo, mouse; details: i.p., barbital 220 mg/kg
Description: Half an hour after the administration of CRL 41 153, groups of 10 mice receive an intraperitoneal injection of barbital (220 mg/kg).

[8] = test system: CNS; assay: Neuropsychopharmacological profile as a whole; format: in vivo, mice and rats
Description: as §1

[9] = test system: dogs; assay: Cardiovascular study in anesthetized dogs; format: in vivo, dog; details: anesthetized dogs
Procedure, shortened: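 Nembutal-anaesthetized dogs (~14 kg) given CRL 41 194 (n=2) or CRL 41 221 (n=4) intraduodenally at successive 0.1, 0.5, 1, 2.5, 5 and 10 mg/kg doses. Blood pressure, heart rate, femoral and vertebral flow, rectal temperature measured; skin colour observed, plus bile colour (CRL 41 194).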

[10] = test system: rats; assay: Interaction with apomorphine in rats; format: in vivo, rat; details: i.p.
Description: CRL 41 153 is administered to groups of 6 rats 0.5 hour before the subcutaneous injection of 0.5 mg/kg of apomorphine.

[11] = test system: mice; assay: Motility reduced by habituation to the enclosure; format: in vivo, mouse; details: i.p.
Description: After they have stayed In the actimeters for 18 hours, (he mice (6 per dose, 12 control animals) receive CRL 41 153. They are immediately returned to their respective enclosures and, half an hour later, their motility is recorded for 30 minutes.

[12] = test system: mice; assay: Behavioral despair; format: in vivo, mouse; details: forcibly immersed mice, i.p.
Description: Half an hour after they have received CRL 41 153, groups of 6 mice are placed in a beaker filled with water to a height of 6 cm. The total period of immobility between the 2nd and 6th minutes following immersion is noted.

[13] = test system: mice; assay: Overall behavior and reactivities in mice; format: in vivo, mouse; details: i.p.
Description: as §1, §2

[14] = test system: nigrostriatal dopaminergic system; assay: Interaction with alpha-methyltyrosine on stereotypies (difference from amphetamine); details: α-methyltyrosine (catecholamine synthesis blocked)
[15] = test system: mice; assay: Interaction with oxotremorine; format: in vivo, mouse; details: i.p.
Description: CRL 41 153 is administered to groups of 6 mice 0.5 hour before the intraperitoneal injection of 0.5 mg/kg of oxotremorine.

[16] = test system: mice; assay: Spontaneous motility; format: in vivo, mouse; details: i.p.
Description: 0.5 hour after they have received CRL 41 153, the mice (6 per dose, 12 control animals) are placed in an actimeter, where their motility is recorded for 30 minutes.

CC(C)NC(C)C(=O)c1ccc(N)cc1 (stereo not drawn) [CRL 41 153, 1-(4-aminophenyl)-2-isopropylaminopropanone dihydrochloride]
Motor recovery of mice after hypobaric hypoxia [1]: as from a dose of 0.5 mg/kg, CRL 41 153 causes a distinct improvement in the motor recovery
Effect on convulsant effects of electric shock [2]: at high doses, CRL 41 153 antagonizes the convulsant effects of electric shock
Observed symptoms ([3]; 0.25 mg/kg): no particular symptoms
Observed symptoms ([3]; 1 mg/kg): mydriasis for 1 hour, reaching its maximum value 1 hour after administration
Hyperthermia (maximum temperature change) ([3]; 4 mg/kg, 0.5 hour after administration): +1.9 °C
Observed symptoms ([3]; 4 mg/kg, dihydrochloride): excitation 0.5 hour after administration and stereotypies for 2 hours; also recorded: hyperthermia for 3 hours; also recorded: mydriasis for 2 hours, reaching its maximum value 0.5 hour after administration
Observed symptoms ([3]; 16 mg/kg, dihydrochloride): excitation 0.5 hour after administration; also recorded: stereotypies for 3 hours; also recorded: an increase in the fear reaction for 3 hours; also recorded: mydriasis for 3 hours, at a maximum 0.5 hour after administration
Affected foetuses, number ([4]; 5 mg/kg daily): 0
Total foetuses (live) ([4]; 5 mg/kg daily): 90
Affected foetuses, % ([4]; 5 mg/kg daily): 0%
Affected foetuses, number ([4]; 10 mg/kg daily): 1
Total foetuses (live) ([4]; 10 mg/kg daily): 88
Affected foetuses, % ([4]; 10 mg/kg daily): 1.13%
Affected foetuses, number ([4]; 50 mg/kg daily): 0
Total foetuses (live) ([4]; 50 mg/kg daily): 93
Affected foetuses, % ([4]; 50 mg/kg daily): 0%
Effect on hypothermia induced by reserpine [5]: as from a dose of 0.5 mg/kg, CRL 41 153 strongly opposes tbe hypothermia
Effect on ptosis induced by reserpine [5]: as from a dose of 0.5 mg/kg, CRL 41 153 strongly opposes tbe hypothermia and ptosis induced by reserpine
Effect on stereotypies induced by amphetamine [6]: at doses of 1 mg/kg. 4 mg/kg and 16 mg/kg, CRL 41 153 potentiates the intensity and duration of the stereotypies induced by amphetamine
Duration of the sleep induced by barbital [7]: reduces the duration of the sleep induced by barbital (total antagonism is obtained at doses of 8 mg/kg and 32 mg/kg)
Time taken to fall asleep (barbital) [7]: at doses of 0.5 to 32 mg/kg, CRL 41 153 increases the time taken to fall asleep
Anticonvulsant effects (overall) ([8]; conclusion of the tests): anticonvulsant effects: at a high dose
Antidepressant effects (overall) ([8]; conclusion of the tests): behaves as an antidepressant for the CNS
Stimulant effects (overall) ([8]; conclusion of the tests): distinct stimulant component
α-adrenergic stimulant effects (overall) ([8]; conclusion of the tests): peripheral α-adrenergic stimulant effects
Peripheral α-adrenergic signs (mydriasis, salivation, lacrimation, exophthalmos) ([8]; species and dose not stated): mydriasis (with neither piloerection nor salivation)
Effect of propanolol or atenolol on the action of the product [9]: The increase in the femoral and vertebral flows is suppressed by propanolol
Effects of isoprenaline on the blood pressure [9]: does not modify the effects of isoprenaline on the blood pressure
Reflex bradycardia caused by hypertension [9]: The reflex bradycardia caused by hypertension is converted to tachycardia
α-adrenergic stimulant effect [9]: moderate α-adrenergic stimulant effect
Blood flow through the femoral artery ([9]; oral, 2.5 to 5 mg/kg): increases the blood flow through the femoral artery
Blood flow through the vertebral artery ([9]; oral, 2.5 to 5 mg/kg): increases the blood flow through the femoral artery and the blood flow through the vertebral artery at doses of 2.5 to 5 mg/kg
Effect on stereotypies induced by apomorphine [10]: as from a dose of 0.5 mg/kg, CRL 41 153 potentiates the stereotypies induced by apomorphine
Motor activity of mice accustomed to their enclosure [11]: causes a distinct resumption in the motor activity of mice accustomed to their enclosure
Period of immobility due to despair [12]: at doses greater than or equal to 0.5 mg/kg, CRL 41 153 reduces the period of immobility
Observed symptoms ([13]; 0.5 mg/kg): no particular symptoms
Observed symptoms ([13]; 2 mg/kg, dihydrochloride): excitation of low intensity 0.5 hour after administration; also recorded: stereotypies for 1 hour; also recorded: an increase in the fear reaction (for 1 hour) and in the reactivity to touch (2 to 3 hours after administration)
Observed symptoms ([13]; 8 mg/kg, dihydrochloride): excitation for 3 hours; also recorded: an increase in the fear reaction (for 3 hours) and in the reactivity to touch (for 24 hours)
Hyperthermia (temperature change) ([13]; 32 mg/kg, 0.5 hour after administration): +1.1 °C
Observed symptoms ([13]; 32 mg/kg, dihydrochloride): excitation and stereotypies for 3 hours; also recorded: an increase in the fear reaction (for 2 hours) and in the reactivity to touch (for 24 hours); also recorded: moderate mydriasis
Effect of alpha-methyltyrosine on the stereotypies induced by the substance [14]: only reduces them
Effect on hypothermic action of oxotremorine [15]: at doses of 2 mg/kg, 8 mg/kg and 32 mg/kg, CRL 41 153 opposes the hypothermic action of oxotremorine
Effect on trembling induced by oxotremorine [15]: at doses of 8 mg/kg and 32 mg/kg, CRL 41 153 partially antagonizes the trembling induced by oxotremorine
Action on the peripheral cholinergic symptoms ([15]; oxotremorine): moderate α-adrenergic stimulant effect
Spontaneous motor activity [16]: increases the spontaneous motor activity of mice
